Reference: article PMC8351955, “Targeting Mycobacterium tuberculosis response to environmental cues for the development of effective antitubercular drugs” (PLoS Biology, 2021)
Where two headings read alike, the source gives them in different places.

How the values were obtained:
[1] = system: CDC1551(rv2390c′::GFP) reporter Mtb strain, response to high [Cl−]; assay: microbe, parasite or virus in culture; format: cell-based, Mycobacterium tuberculosis; details: for activity at 10 µM / activity at 20 µM / IC50: Mycobacterium tuberculosis; for activity at 10 µM / activity at 20 µM: 144 h; for activity at 20 µM: read-out: rv2390c'::GFP validation assay NPA% at 20 µM compound; for IC50: read-out: ShuminTan.MtbChloride.Validation: IC50; for ShuminTan.MtbChloride.Primary: NPI%: Sheet2
[2] = system: Mtb growth in J774 murine macrophage-like cells; assay: microbe, parasite or virus in culture; format: cell-based, Mycobacterium tuberculosis; details: Mycobacterium tuberculosis; for IC50: J774 dose response 0.039-20 µM, read-out: ShuminTan.Mtb.Validation.Macrophage: IC50
[3] = system: CDC1551(rv1405c′::GFP) reporter Mtb strain; assay: microbe, parasite or virus in culture; format: cell-based, Mycobacterium tuberculosis; details: for activity at 10 µM / activity at 20 µM / IC50: Mycobacterium tuberculosis; for activity at 10 µM: read-out: rv1405c'::GFP secondary assay NPA% at 10 µM compound; for activity at 20 µM: read-out: rv1405c'::GFP secondary assay NPA% at 20 µM compound; for IC50: read-out: ShuminTan.MtbChloride.Secondary: IC50
[4] = system: Mtb growth in cholesterol media; set-up: method as in PubChem AID 1259343; details: ref PubChem AID 1259343; cited from earlier work
[5] = pH 6.4, […], DMSO positive control = 100%, read-out: Primary screen rv2390c'::GFP NPA%
[6] = 10 µM, pH 6.4, 250 mM NaCl, 6 days, read-out: rv2390c'::GFP validation assay NPA% at 10 µM compound
[7] = J774, read-out: %inhibition compared to Rif in J774 at 20 uM

Compound: COc1ccc(Cl)c(NS(=O)(=O)c2cnc(Cl)n2C)c1 [RU-0278036, COC1=CC(NS(=O)(=O)C2=CN=C(Cl)N2C)=C(Cl)C=C1]
- activity at 10 µM [1, 5]: 48.8%
- activity at 10 µM [1, 6]: 87.6 ± 8%
- activity at 20 µM ([1]; pH 6.4, 250 mM NaCl, 6 days): 50 ± 7.7%
- inhibition at 10 µM ([2]; J774, 144 h, read-out: J774 tertiary assay % inhibition compared to Rif at 10 µM compound): 23.9 ± 12.9%
- inhibition at 20 µM ([2]; J774, 144 h, read-out: J774 tertiary assay % inhibition compared to Rif at 20 µM compound): 61.5 ± 2.6%
- activity at 10 µM [3]: 75.9 ± 12.9%
- activity at 20 µM [3]: 152 ± 19.9%

Compound: O=S1(=O)CC(S(=O)(=O)Nc2ccccc2-c2cccs2)c2ccccc21 (stereo not shown) [RU-0214604, O=S(=O)(NC1=C(C=CC=C1)C1=CC=CS1)C1CS(=O)(=O)C2=C1C=CC=C2]
- validation NPI at 10 uM [1]: 146
- validation NPI at 20 uM [1]: 162
- activity at 10 µM [1, 5]: 183%
- activity at 10 µM [1, 6]: 145 ± 12%
- activity at 20 µM ([1]; pH 6.4, 250 mM NaCl, 6 days): 161 ± 3.2%
- IC50 [1]: < 39.1 nM
- ShuminTan.MtbChloride.Primary: NPI% ([1]; primary screen): 183.08%
- inhibition at 20 µM [2, 7]: 14.8%
- IC50 [2]: > 20 µM
- rv1405c assay NPI at 10 uM [3]: 181
- rv1405c assay NPI at 20 uM [3]: 212
- IC50 [3]: < 39.1 nM
- activity at 10 µM [3]: 179 ± 26.5%
- activity at 20 µM [3]: 213 ± 23.6%

Compound: O=C(Nc1cccc(C(F)(F)F)c1)c1n[nH]c(=O)c2ccccc12 [RU-0270645, FC(F)(F)C1=CC(NC(=O)C2=NNC(=O)C3=C2C=CC=C3)=CC=C1]
- validation NPI at 10 uM [1]: 143
- validation NPI at 20 uM [1]: 153
- activity at 10 µM [1, 5]: 155%
- activity at 10 µM [1, 6]: 142 ± 8.2%
- activity at 20 µM ([1]; pH 6.4, 250 mM NaCl, 6 days): 152 ± 12.1%
- IC50 [1]: < 39.1 nM
- ShuminTan.MtbChloride.Primary: NPI% ([1]; primary screen): 154.973%
- inhibition at 20 µM [2, 7]: 17.7%
- IC50 [2]: > 20 µM
- rv1405c assay NPI at 10 uM [3]: 93.5
- rv1405c assay NPI at 20 uM [3]: 138
- IC50 [3]: < 39.1 nM
- activity at 10 µM [3]: 93.4 ± 11.5%
- activity at 20 µM [3]: 139 ± 4.6%

Compound: c1ccc2oc(N3CCN(Cc4ccc(C5CCCO5)s4)CC3)nc2c1 (stereo not shown) [PubChem SID: 340463409, reference compound]
- Dysregulation of Mtb Cl− response in original rv2390c′::GFP screen ([1]; primary screen, 10 µM): did not demonstrate dysregulation
- Call in screen for inhibition of Mtb growth in cholesterol media [4]: having antitubercular activity in cholesterol media
